Experimental data published in patent publication US8163771B2, “11 β-HSD1 modulators” (Exelixis, Inc., priority 2008, dated 2012).

Molecular target: T1, recombinant human 11 β-HSD1 (Homo sapiens, UniProt P28845)
T1 construct: made in house; host or cells: E. coli
Experiment: 11 β-HSD1 SPA Assay (Scintillation Proximity Assay)
Assay type: biochemical
Outline: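 Scintillation proximity read-out of cortisol formed from 40 nM [3H]cortisone by purified recombinant human enzyme (30-100 nM, E. coli) with 1 mM NADPH, pH7.4, 2 hours at room temperature; beads with cortisol antibody and glycyrrhetinic acid stop the reaction, read next day. IC50 derived from inhibition normalised to background and maximal wells.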

T1 sequence (P28845 whole entry): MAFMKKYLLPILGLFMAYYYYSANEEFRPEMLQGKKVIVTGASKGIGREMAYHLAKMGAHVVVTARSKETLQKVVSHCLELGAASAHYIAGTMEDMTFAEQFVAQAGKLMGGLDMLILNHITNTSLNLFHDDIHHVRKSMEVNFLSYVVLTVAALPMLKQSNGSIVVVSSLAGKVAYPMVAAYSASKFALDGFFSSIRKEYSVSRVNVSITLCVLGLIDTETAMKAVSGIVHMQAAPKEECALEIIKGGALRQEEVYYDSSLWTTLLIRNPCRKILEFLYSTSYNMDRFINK

SMILES | IC50 [nM]
CC(C)(Oc1ccc(Cl)cc1Cl)C(=O)N[C@H]1C[C@H]2CC[C@@H](C1)N2c1ccc(C(=O)NCC(F)F)cn1 [Example 355, 6-(3-endo-{[2-(2,4-dichlorophenoxy)-2-methylpropanoyl]amino}-8-azabicyclo[3.2.1]oct-8-yl)-N-(2,2-difluoroethyl)pyridine-3-carboxamide] | < 200
CC(C)(Oc1ccc(Cl)cc1S(C)(=O)=O)C(=O)NC1CC2CCC(C1)N2c1ccc(C(=O)NC2CC2(F)F)cn1 (stereo not drawn) [Example 357, 6-[3-endo-({2-[4-chloro-2-(methylsulfonyl)phenoxy]-2-methylpropanoyl}amino)-8-azabicyclo[3.2.1]oct-8-yl]-N-(2,2-difluorocyclopropyl)pyridine-3-carboxamide] | < 200
CC(C)(Oc1ccc(Cl)cc1N1CCOCC1)C(=O)N[C@H]1C[C@H]2CC[C@@H](C1)N2c1ccc(C(=O)NCC(F)(F)F)cn1 [Example 359, 6-[3-endo-({2-[4-chloro-2-(morpholin-4-yl)phenoxy]-2-methylpropanoyl}amino)-8-azabicyclo[3.2.1]oct-8-yl]-N-(2,2,2-trifluoroethyl)pyridine-3-carboxamide] | < 200
CC(C)(Oc1ccc(Cl)cc1C(N)=O)C(=O)N[C@H]1C[C@H]2CC[C@@H](C1)N2c1ccc(C(=O)NCC(F)(F)F)cn1 [Example 360, 6-(3-endo-{[2-(2-carbamoyl-4-chlorophenoxy)-2-methylpropanoyl]amino}-8-azabicyclo[3.2.1]oct-8-yl)-N-(2,2,2-trifluoroethyl)pyridine-3-carboxamide] | < 200
CC(C)(Oc1cc(OCCO)c(Cl)cc1Cl)C(=O)N[C@H]1C[C@H]2CC[C@@H](C1)N2c1ccc(C(=O)NCC(F)(F)F)cn1 [Example 361, 6-[3-endo-({2-[2,4-dichloro-5-(2-hydroxyethoxy)phenoxy]-2-methylpropanoyl}amino)-8-azabicyclo[3.2.1]oct-8-yl]-N-(2,2,2-trifluoroethyl)pyridine-3-carboxamide] | < 200
CC(C)(Oc1ccc(Cl)cc1Cl)C(=O)N[C@H]1C[C@H]2CC[C@@H](C1)N2c1ccc(C(=O)NCCN2CCOCC2)cn1 [Example 362, 6-(3-endo-{[2-(2,4-dichlorophenoxy)-2-methylpropanoyl]amino}-8-azabicyclo[3.2.1]oct-8-yl)-N-[2-(morpholin-4-yl)ethyl]pyridine-3-carboxamide] | < 200
CC(C)(Oc1ccc(Cl)cc1OC(F)(F)F)C(=O)N[C@H]1C[C@H]2CC[C@@H](C1)N2c1ccc(C(=O)NCC(F)(F)F)cn1 [Example 363, 6-[3-endo-({2-[4-chloro-2-(trifluoromethoxy)phenoxy]-2-methylpropanoyl}amino)-8-azabicyclo[3.2.1]oct-8-yl]-N-(2,2,2-trifluoroethyl)pyridine-3-carboxamide] | < 200
CC(C)(Oc1ccc(Cl)cc1C(F)F)C(=O)N[C@H]1C[C@H]2CC[C@@H](C1)N2c1ccc(C(=O)NCC(F)(F)F)cn1 [Example 364, 6-[3-endo-({2-[4-chloro-2-(difluoromethyl)phenoxy]-2-methylpropanoyl}amino)-8-azabicyclo[3.2.1]oct-8-yl]-N-(2,2,2-trifluoroethyl)pyridine-3-carboxamide] | < 200
CC(C)(Oc1ccc(Cl)cc1C(F)F)C(=O)N[C@H]1C[C@H]2CC[C@@H](C1)N2c1ccc(S(C)(=O)=O)cn1 [Example 365, 2-[4-chloro-2-(difluoromethyl)phenoxy]-2-methyl-N-{8-[5-(methylsulfonyl)pyridin-2-yl]-8-azabicyclo[3.2.1]oct-3-endo-yl}propanamide] | < 200
CC(C)(Oc1cccc2[nH]ccc12)C(=O)N[C@H]1C[C@H]2CC[C@@H](C1)N2c1ccc(C(=O)NCC(F)(F)F)cn1 [Example 366, 6-(3-endo-{[2-(1h-indol-4-yloxy)-2-methylpropanoyl]amino}-8-azabicyclo[3.2.1]oct-8-yl)-N-(2,2,2-trifluoroethyl)pyridine-3-carboxamide] | < 200
CC(C)(Oc1ccc(Cl)cc1Cl)C(=O)N[C@H]1C[C@H]2CC[C@@H](C1)N2c1ccc(C(=O)NCCO)cn1 [Example 367, 6-(3-endo-{[2-(2,4-dichlorophenoxy)-2-methylpropanoyl]amino}-8-azabicyclo[3.2.1]oct-8-yl)-N-(2-hydroxyethyl)pyridine-3-carboxamide] | < 200
CC(C)NC(=O)c1ccc(N2[C@@H]3CC[C@H]2C[C@@H](NC(=O)C(C)(C)Oc2ccc(Cl)cc2S(C)(=O)=O)C3)nc1 [Example 368, 6-[3-endo-({2-[4-chloro-2-(methylsulfonyl)phenoxy]-2-methylpropanoyl}amino)-8-azabicyclo[3.2.1]oct-8-yl]-N-(propan-2-yl)pyridine-3-carboxamide] | < 200
CC(C)(Oc1ccc(F)cc1C(F)(F)F)C(=O)NC1CC2CCC(C1)N2c1ccc(C(=O)NC2CC2(F)F)cn1 (stereo not drawn) [Example 369, N-(2,2-difluorocyclopropyl)-6-[3-endo-({2-[4-fluoro-2-(trifluoromethyl)phenoxy]-2-methylpropanoyl}amino)-8-azabicyclo[3.2.1]oct-8-yl]pyridine-3-carboxamide] | < 200
CC(C)NC(=O)c1ccc(N2[C@@H]3CC[C@H]2C[C@@H](NC(=O)C(C)(C)Oc2ccc(Cl)cc2C(F)(F)F)C3)nc1 [Example 370, 6-[3-endo-({2-[4-chloro-2-(trifluoromethyl)phenoxy]-2-methylpropanoyl}amino)-8-azabicyclo[3.2.1]oct-8-yl]-N-(propan-2-yl)pyridine-3-carboxamide] | < 200
CC(C)(Oc1ccc(F)cc1Cl)C(=O)N[C@H]1C[C@H]2CC[C@@H](C1)N2c1ccc(C(=O)NCC(F)F)cn1 [Example 371, 6-(3-endo-{[2-(2-chloro-4-fluorophenoxy)-2-methylpropanoyl]amino}-8-azabicyclo[3.2.1]oct-8-yl)-N-(2,2-difluoroethyl)pyridine-3-carboxamide] | < 200
CC(C)(Oc1ccc(F)cc1C(F)(F)F)C(=O)N[C@H]1C[C@H]2CC[C@@H](C1)N2c1ccc(C(=O)NCC(F)F)cn1 [Example 372, N-(2,2-difluoroethyl)-6-[3-endo-({2-[4-fluoro-2-(trifluoromethyl)phenoxy]-2-methylpropanoyl}amino)-8-azabicyclo[3.2.1]oct-8-yl]pyridine-3-carboxamide] | < 200
C[C@@H](NC(=O)c1ccc(N2C3CCC2CC(NC(=O)C(C)(C)Oc2ccc(Cl)cc2Cl)C3)nc1)C(F)(F)F (stereo partly drawn) [Example 373, 6-(3-endo-{[2-(2,4-dichlorophenoxy)-2-methylpropanoyl]amino}-8-azabicyclo[3.2.1]oct-8-yl)-N-[(2R)-1,1,1-trifluoropropan-2-yl]pyridine-3-carboxamide] | < 200
C[C@H](NC(=O)c1ccc(N2C3CCC2CC(NC(=O)C(C)(C)Oc2ccc(Cl)cc2Cl)C3)nc1)C(F)(F)F (stereo partly drawn) [Example 374, 6-(3-endo-{[2-(2,4-dichlorophenoxy)-2-methylpropanoyl]amino}-8-azabicyclo[3.2.1]oct-8-yl)-N-[(2S)-1,1,1-trifluoropropan-2-yl]pyridine-3-carboxamide] | < 200
CC(C)(Oc1ccc(Cl)cc1C(=O)O)C(=O)N[C@H]1C[C@H]2CC[C@@H](C1)N2c1ccc(C(=O)NCC(F)(F)F)cn1 [Example 375, 5-chloro-2-({2-methyl-1-oxo-1-[(8-{5-[(2,2,2-trifluoroethyl)carbamoyl]pyridin-2-yl}-8-azabicyclo[3.2.1]oct-3-endo-yl)amino]propan-2-yl}oxy)benzoic acid] | < 200
CC(C)(Oc1ccc(Cl)cc1CO)C(=O)N[C@H]1C[C@H]2CC[C@@H](C1)N2c1ccc(C(=O)NCC(F)(F)F)cn1 [Example 376, 6-[3-endo-({2-[4-chloro-2-(hydroxymethyl)phenoxy]-2-methylpropanoyl}amino)-8-azabicyclo[3.2.1]oct-8-yl]-N-(2,2,2-trifluoroethyl)pyridine-3-carboxamide] | < 200
CCN(CC)CCNC(=O)c1ccc(N2[C@@H]3CC[C@H]2C[C@@H](NC(=O)C(C)(C)Oc2ccc(Cl)cc2Cl)C3)nc1 [Example 377, 6-(3-endo-{[2-(2,4-dichlorophenoxy)-2-methylpropanoyl]amino}-8-azabicyclo[3.2.1]oct-8-yl)-N-[2-(diethylamino)ethyl]pyridine-3-carboxamide] | < 200
CC(C)(Oc1ccc(Cl)cc1Cl)C(=O)N[C@H]1C[C@H]2CC[C@@H](C1)N2c1ccc(C(=O)NC2CCOCC2)cn1 [Example 378, 6-(3-endo-{[2-(2,4-dichlorophenoxy)-2-methylpropanoyl]amino}-8-azabicyclo[3.2.1]oct-8-yl)-N-(tetrahydro-2h-pyran-4-yl)pyridine-3-carboxamide] | < 200
CC(C)(Oc1ccc(Cl)cc1Cl)C(=O)N[C@H]1C[C@H]2CC[C@@H](C1)N2c1ccc(C(=O)NC2CCS(=O)(=O)CC2)cn1 [Example 379, 6-(3-endo-{[2-(2,4-dichlorophenoxy)-2-methylpropanoyl]amino}-8-azabicyclo[3.2.1]oct-8-yl)-N-(1,1-dioxidotetrahydro-2h-thiopyran-4-yl)pyridine-3-carboxamide] | < 200
CC(C)(Oc1ccc(Cl)cc1Cl)C(=O)N[C@H]1C[C@H]2CC[C@@H](C1)N2c1ccc(C(=O)NC2CCSCC2)cn1 [Example 380, 6-(3-endo-{[2-(2,4-dichlorophenoxy)-2-methylpropanoyl]amino}-8-azabicyclo[3.2.1]oct-8-yl)-N-(tetrahydro-2H-thiopyran-4-yl)pyridine-3-carboxamide] | < 200
CC(C)(Oc1cc(C(C)(C)O)c(Cl)cc1Cl)C(=O)NC1CC2CCC(C1)N2c1ccc(C(=O)NCC(O)C(F)(F)F)cn1 (stereo not drawn) [Example 381, 6-[3-endo-({2-[2,4-dichloro-5-(2-hydroxypropan-2-yl)phenoxy]-2-methylpropanoyl}amino)-8-azabicyclo[3.2.1]oct-8-yl]-N-(3,3,3-trifluoro-2-hydroxypropyl)pyridine-3-carboxamide] | < 200
